Test systems include NCI-H460 lung; SNB-19 CNS; UACC-62 melanoma; LOX IMVI melanoma; M14 melanoma; HOP-92 NSCLC; SF-539 CNS; MOLT-4 leukemia; ACHN renal; T-47D breast.
Test in all cases: growth of human tumour cells (NCI), 48 h

SMILES strings stand for the structures.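 Tested at 5 concentrations; 48 h exposure; 96-well plates; endpoints linearly interpolated, else capped at highest concentration. Here, GI50 denotes the concentration required for 50% inhibition of growth. TGI denotes the concentration required for complete inhibition of growth.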

Consider `Cc1cc(Nc2cc(N)ncn2)c(=O)n2c1C(=O)NC21CCCCC1`, for which the GI50 was more than 100 µM in the test with NCI-H460 lung; more than 100 µM in the test with SNB-19 CNS; more than 100 µM with UACC-62 melanoma; more than 100 µM with LOX IMVI melanoma; more than 100 µM in the test with M14 melanoma; 13.3 µM in the test with HOP-92 NSCLC. The GI50 in the test on SF-539 CNS is 94.6 µM; with MOLT-4 leukemia it was more than 100 µM; with ACHN renal, 25.3 µM; in the test on T-47D breast, more than 100 µM. Also, the TGI with NCI-H460 lung, in the test on SNB-19 CNS, in the test on UACC-62 melanoma, in the test on LOX IMVI melanoma, with M14 melanoma and in the test on HOP-92 NSCLC was more than 100 µM each time. Also, the TGI with SF-539 CNS, with MOLT-4 leukemia, in the test with ACHN renal and with T-47D breast was more than 100 µM each time.
In the case of `CC(=C/c1ccccc1)/C=C1/NC(=S)N(/C=C2\C(=O)Oc3ccccc3C2=O)C1=O`, the TGI is more than 100 µM in the test on NCI-H460 lung; more than 100 µM in the test with SNB-19 CNS; more than 100 µM in the test with UACC-62 melanoma; more than 100 µM with LOX IMVI melanoma; more than 100 µM with M14 melanoma; more than 65 µM in the test with HOP-92 NSCLC. For the same compound, the TGI in the test with SF-539 CNS, with MOLT-4 leukemia, in the test on ACHN renal and in the test with T-47D breast was more than 100 µM throughout. Besides, the GI50 in the test on UACC-62 melanoma is 40.7 µM.
In the case of `Cc1cc(I)cc(CN(C)CCCN2CCN(C)CC2)c1O`, the GI50 is 32.8 µM in the test with NCI-H460 lung; more than 100 µM with SNB-19 CNS; 6.89 µM in the test on UACC-62 melanoma; 17.2 µM in the test on LOX IMVI melanoma; 4.67 µM in the test on M14 melanoma; 37.9 µM in the test with HOP-92 NSCLC. Besides, the GI50 in the test on SF-539 CNS was 16 µM; in the test with MOLT-4 leukemia it was 21.7 µM; in the test on ACHN renal it was 81.6 µM; with T-47D breast, 28.7 µM. Besides, the TGI with NCI-H460 lung was more than 100 µM; in the test with SNB-19 CNS, more than 100 µM; with UACC-62 melanoma, 19.3 µM; with LOX IMVI melanoma it was 36.1 µM; with M14 melanoma it was 23.9 µM; in the test on HOP-92 NSCLC, more than 100 µM. In addition, the TGI in the test with SF-539 CNS is 33 µM; in the test with MOLT-4 leukemia it was more than 63.8 µM; in the test on ACHN renal it was more than 100 µM; with T-47D breast it was 91.1 µM.
As to `CCN(Cc1c(Cl)cccc1Cl)c1ccc(CO)c(Cl)c1`, the GI50 in the test with NCI-H460 lung was 0.171 µM; in the test on SNB-19 CNS it was 13.2 µM; in the test with UACC-62 melanoma, 0.0406 µM; in the test with LOX IMVI melanoma, 16.9 µM; in the test with M14 melanoma it was 15.5 µM; with HOP-92 NSCLC, 0.606 µM. In addition, the GI50 was 15.1 µM in the test on SF-539 CNS, 14.8 µM in the test with MOLT-4 leukemia, 14.2 µM in the test with ACHN renal and less than 0.017 µM in the test on T-47D breast. Besides, the TGI in the test with NCI-H460 lung stood at 13.9 µM; in the test on SNB-19 CNS, 26.2 µM; in the test on UACC-62 melanoma, 0.741 µM; with LOX IMVI melanoma, 32.6 µM; in the test on M14 melanoma, 30.9 µM; in the test with HOP-92 NSCLC, 9.64 µM. The TGI in the test on SF-539 CNS stood at 28.6 µM; in the test with MOLT-4 leukemia, 35.7 µM; with ACHN renal it was 27.3 µM; with T-47D breast, 0.18 µM.
In the case of `Cc1ccc(-c2cc(O)c(-c3ccc(C)cc3C)cc2O)c(C)c1`, the GI50 was 0.923 µM in the test on NCI-H460 lung; 10.9 µM in the test on SNB-19 CNS; 4.23 µM with UACC-62 melanoma; 1.92 µM with LOX IMVI melanoma; 6.58 µM with M14 melanoma; 5.44 µM in the test on HOP-92 NSCLC. Further, the GI50 is 10.7 µM with SF-539 CNS, 6.23 µM with MOLT-4 leukemia, 8.17 µM with ACHN renal and 5.24 µM in the test with T-47D breast. For the same compound, the TGI worked out at 15.2 µM with NCI-H460 lung; 30.9 µM in the test on SNB-19 CNS; 19.8 µM with UACC-62 melanoma; 17.2 µM in the test with LOX IMVI melanoma; 19.9 µM in the test on M14 melanoma; 28.9 µM with HOP-92 NSCLC. Further, the TGI in the test on SF-539 CNS was 23.2 µM; with MOLT-4 leukemia, more than 100 µM; with ACHN renal, 23 µM; in the test with T-47D breast, 42.9 µM.
For `Oc1ccc(N=Nc2ccccn2)c(O)c1`, the GI50 in the test on NCI-H460 lung was 0.543 µM; in the test with SNB-19 CNS it was 2.07 µM; with UACC-62 melanoma it was 0.576 µM; with LOX IMVI melanoma it was 0.365 µM; in the test with HOP-92 NSCLC, 2.09 µM; in the test with SF-539 CNS it was 0.999 µM. Besides, the results for the GI50 with MOLT-4 leukemia, with ACHN renal and in the test with T-47D breast were 0.42 µM, 0.507 µM and 2.05 µM, respectively. Moreover, the TGI was more than 100 µM in the test on NCI-H460 lung; more than 100 µM in the test with SNB-19 CNS; 58.2 µM in the test on UACC-62 melanoma; more than 100 µM in the test on LOX IMVI melanoma; more than 100 µM in the test on HOP-92 NSCLC; 61.8 µM in the test on SF-539 CNS. Also, the TGI with MOLT-4 leukemia, with ACHN renal and in the test with T-47D breast was more than 100 µM throughout.
`CCSc1ccc(C2C(Br)C(=O)N2c2cc(OC)c(OC)c(OC)c2)cc1` (stereo not given): the GI50 in the test with NCI-H460 lung was 0.539 µM; in the test with SNB-19 CNS it was 0.44 µM; in the test on UACC-62 melanoma, 0.0973 µM; in the test with LOX IMVI melanoma, 0.834 µM; with M14 melanoma it was 0.128 µM; in the test with HOP-92 NSCLC, 0.443 µM. The GI50 with SF-539 CNS was 0.161 µM; with MOLT-4 leukemia, 0.347 µM; in the test with T-47D breast, 16.9 µM. The TGI was 14.2 µM with NCI-H460 lung; more than 100 µM in the test with SNB-19 CNS; 30 µM in the test on UACC-62 melanoma; 16.6 µM in the test with LOX IMVI melanoma; 2.12 µM in the test with M14 melanoma; 14.1 µM in the test with HOP-92 NSCLC. The TGI with SF-539 CNS stood at 0.61 µM; in the test on MOLT-4 leukemia, 88.9 µM; with T-47D breast, 35.7 µM.
With `O=Nc1c(-c2c(O)[nH]c3ccc(Br)cc23)[nH]c2ccccc12`, the GI50 is 2.4 µM with NCI-H460 lung; 7.99 µM in the test on SNB-19 CNS; 4.96 µM with UACC-62 melanoma; 2.18 µM with LOX IMVI melanoma; 6.25 µM with HOP-92 NSCLC; 2.62 µM in the test with SF-539 CNS. For the same compound, the values for the GI50 with MOLT-4 leukemia, with ACHN renal and in the test on T-47D breast were 2.93 µM, 2.25 µM and 12.1 µM, respectively. For the same compound, the TGI with NCI-H460 lung is 5.99 µM; with SNB-19 CNS it was more than 100 µM; in the test with UACC-62 melanoma it was 15.1 µM; in the test with LOX IMVI melanoma it was 11 µM; in the test on HOP-92 NSCLC, 45.1 µM; with SF-539 CNS, 7.47 µM. The TGI in the test on MOLT-4 leukemia is 7.21 µM; in the test on ACHN renal it was 7.69 µM; in the test with T-47D breast, more than 100 µM.

These data come from PubChem BioAssay (NCI).
